Source: ChEMBL document CHEMBL4190279 (Eur J Med Chem, 2017)
Active and inactive are the calls of the source. The calls are words filed in the database; no cut-off is given here.

Columns and labels:
[1] = target: T1, Acetylcholinesterase (Electrophorus electricus, UniProt O42275); test: Non-competitive inhibition of electric eel AChE assessed as enzyme-inhibitor complex using p-nitrophenyl acetate as substrate by Lineweaver-Burk plot analysis
[2] = target: T1, Acetylcholinesterase; test: Non-competitive inhibition of electric eel AChE assessed as enzyme-substrate-inhibitor complex using p-nitrophenyl acetate as substrate by Lineweaver-Burk plot analysis
[3] = target: T2, Cholinesterase (Equus caballus, UniProt P81908); test: Mixed-type inhibition of equine serum BuChE assessed as enzyme-inhibitor complex using p-nitrophenyl butyrate as substrate by Lineweaver-Burk plot analysis
T2 sequence (P81908 whole entry): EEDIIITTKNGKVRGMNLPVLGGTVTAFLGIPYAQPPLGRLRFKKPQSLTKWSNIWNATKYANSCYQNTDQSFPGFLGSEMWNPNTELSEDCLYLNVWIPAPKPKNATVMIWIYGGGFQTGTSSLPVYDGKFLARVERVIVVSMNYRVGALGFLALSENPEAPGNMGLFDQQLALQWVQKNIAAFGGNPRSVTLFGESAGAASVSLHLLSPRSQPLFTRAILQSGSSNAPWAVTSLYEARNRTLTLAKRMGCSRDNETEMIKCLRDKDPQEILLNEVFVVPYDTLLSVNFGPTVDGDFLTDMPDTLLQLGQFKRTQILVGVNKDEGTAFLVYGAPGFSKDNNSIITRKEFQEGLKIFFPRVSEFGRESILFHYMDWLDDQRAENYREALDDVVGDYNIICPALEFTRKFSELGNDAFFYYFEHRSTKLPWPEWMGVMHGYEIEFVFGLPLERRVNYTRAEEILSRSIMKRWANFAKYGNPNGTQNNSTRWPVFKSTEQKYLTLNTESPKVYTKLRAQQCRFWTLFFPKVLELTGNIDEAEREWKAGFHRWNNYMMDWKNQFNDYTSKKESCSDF

[4] = target: T2, Cholinesterase; test: Mixed-type inhibition of equine serum BuChE assessed as enzyme-substrate-inhibitor complex using p-nitrophenyl butyrate as substrate by Lineweaver-Burk plot analysis
[5] = Selectivity index, ratio of Ki for equine serum BuChE assessed as enzyme-substrate-inhibitor complex to Ki for electric eel AChE assessed as enzyme-substrate-inhibitor complex
[6] = GPx-like activity of the compound assessed as velocity for H2O2 reduction by measuring oxidation of PhSH to (PhS)2 at 50 uM measured for 180 secs by spectrophotometric analysis; type: functional
[7] = GPx-like activity of the compound assessed as H2O2 reduction by measuring oxidation of PhSH to (PhS)2 at 50 uM measured for 180 secs by spectrophotometric analysis relative to control; type: functional
[8] = tested on: HBL-100; test: Potency index, ratio of 5-FU GI50 to compound GI50 for human HBL100 cells; type: functional
[9] = GPx-like activity of the compound assessed as half life for H2O2 reduction by measuring oxidation of PhSH to (PhS)2 at 50 uM measured for 180 secs by spectrophotometric analysis relative to control; type: functional
[10] = tested on: HeLa; test: Potency index, ratio of 5-FU GI50 to compound GI50 for human HeLa cells; type: functional
[11] = tested on: SW1573; test: Potency index, ratio of 5-FU GI50 to compound GI50 for human SW1573 cells; type: functional
[12] = tested on: T47D; test: Potency index, ratio of 5-FU GI50 to compound GI50 for human T47D cells; type: functional
[13] = tested on: WiDr; test: Potency index, ratio of 5-FU GI50 to compound GI50 for human WiDr cells; type: functional
[14] = tested on: HBL-100; test: Potency index, ratio of cisplatin GI50 to compound GI50 for human HBL100 cells; type: functional
[15] = tested on: HeLa; test: Potency index, ratio of cisplatin GI50 to compound GI50 for human HeLa cells; type: functional
[16] = tested on: SW1573; test: Potency index, ratio of cisplatin GI50 to compound GI50 for human SW1573 cells; type: functional
[17] = tested on: T47D; test: Potency index, ratio of cisplatin GI50 to compound GI50 for human T47D cells; type: functional
[18] = tested on: WiDr; test: Potency index, ratio of cisplatin GI50 to compound GI50 for human WiDr cells; type: functional
[19] = tested on: A549; test: Potency index, ratio of cisplatin GI50 to compound GI50 for human A549 cells; type: functional
[20] = tested on: A549; test: Cell cycle arrest in human A549 cells assessed as accumulation at G1-phase at 0.2 uM after 24 hrs by propidium iodide staining based flow cytometry; type: functional
[21] = tested on: HBL-100; test: Cell cycle arrest in human HBL100 cells assessed as accumulation at G1-phase at 0.2 uM after 24 hrs by propidium iodide staining based flow cytometry; type: functional
[22] = tested on: HeLa; test: Cell cycle arrest in human HeLa cells assessed as accumulation at G1-phase at 0.2 uM after 24 hrs by propidium iodide staining based flow cytometry; type: functional
[23] = tested on: SW1573; test: Cell cycle arrest in human SW1573 cells assessed as accumulation at G1-phase at 0.2 uM after 24 hrs by propidium iodide staining based flow cytometry; type: functional
[24] = tested on: T47D; test: Cell cycle arrest in human T47D cells assessed as accumulation at G1-phase at 0.2 uM after 24 hrs by propidium iodide staining based flow cytometry; type: functional
[25] = tested on: WiDr; test: Cell cycle arrest in human WiDr cells assessed as accumulation at G1-phase at 0.2 uM after 24 hrs by propidium iodide staining based flow cytometry; type: functional
[26] = tested on: A549; test: Cell cycle arrest in human A549 cells assessed as accumulation at subG1-phase at 1 uM after 24 hrs by propidium iodide staining based flow cytometry; type: functional
[27] = tested on: HBL-100; test: Cell cycle arrest in human HBL100 cells assessed as accumulation at subG1-phase at 1 uM after 24 hrs by propidium iodide staining based flow cytometry; type: functional
[28] = tested on: HeLa; test: Cell cycle arrest in human HeLa cells assessed as accumulation at subG1-phase at 1 uM after 24 hrs by propidium iodide staining based flow cytometry; type: functional
[29] = tested on: SW1573; test: Cell cycle arrest in human SW1573 cells assessed as accumulation at subG1-phase at 1 uM after 24 hrs by propidium iodide staining based flow cytometry; type: functional
[30] = tested on: T47D; test: Cell cycle arrest in human T47D cells assessed as accumulation at subG1-phase at 1 uM after 24 hrs by propidium iodide staining based flow cytometry; type: functional
[31] = tested on: WiDr; test: Cell cycle arrest in human WiDr cells assessed as accumulation at subG1-phase at 1 uM after 24 hrs by propidium iodide staining based flow cytometry; type: functional
[32] = tested on: A549; test: cells; conditions: Homo sapiens, A549, 48 h
Description: Antiproliferative activity against human A549 cells after 48 hrs by SRB assay

[33] = tested on: HBL-100; test: cells; conditions: Homo sapiens, HBL-100, 48 h
Description: Antiproliferative activity against human HBL100 cells after 48 hrs by SRB assay

[34] = tested on: HeLa; test: cells; conditions: Homo sapiens, 48 h
Description: Antiproliferative activity against human HeLa cells after 48 hrs by SRB assay

[35] = tested on: SW1573; test: cells; conditions: Homo sapiens, SW1573, 48 h
Description: Antiproliferative activity against human SW1573 cells after 48 hrs by SRB assay

[36] = tested on: T47D; test: cells; conditions: Homo sapiens, 48 h
Description: Antiproliferative activity against human T47D cells after 48 hrs by SRB assay

[37] = tested on: WiDr; test: cells; conditions: Homo sapiens, 48 h
Description: Antiproliferative activity against human WiDr cells after 48 hrs by SRB assay

[38] = in vitro; conditions: human, hTERT-BJ cells
Description: Antiproliferative activity against human hTERT-BJ cells after 48 hrs by SRB assay

T1 sequence (O42275 whole entry): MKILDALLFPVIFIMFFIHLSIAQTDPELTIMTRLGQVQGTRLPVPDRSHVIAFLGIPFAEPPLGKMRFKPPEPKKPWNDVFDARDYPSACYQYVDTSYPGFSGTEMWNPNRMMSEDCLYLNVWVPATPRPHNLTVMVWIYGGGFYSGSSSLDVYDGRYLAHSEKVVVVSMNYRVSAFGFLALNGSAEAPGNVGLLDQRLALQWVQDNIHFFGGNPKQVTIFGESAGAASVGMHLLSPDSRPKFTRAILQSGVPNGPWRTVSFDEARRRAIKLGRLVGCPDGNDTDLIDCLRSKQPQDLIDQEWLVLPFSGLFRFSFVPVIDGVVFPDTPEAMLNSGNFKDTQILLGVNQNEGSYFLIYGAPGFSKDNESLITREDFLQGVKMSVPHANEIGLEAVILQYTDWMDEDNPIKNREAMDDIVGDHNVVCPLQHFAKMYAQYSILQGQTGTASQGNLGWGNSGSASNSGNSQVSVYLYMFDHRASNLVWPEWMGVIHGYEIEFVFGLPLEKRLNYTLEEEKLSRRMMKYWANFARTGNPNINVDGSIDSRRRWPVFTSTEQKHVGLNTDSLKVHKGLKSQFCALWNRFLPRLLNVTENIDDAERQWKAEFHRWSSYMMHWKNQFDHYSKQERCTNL

Question: What does the source list for `c1ccc2c(NCCCCCC[Se][Se]CCCCCCNc3c4c(nc5ccccc35)CCCC4)c3c(nc2c1)CCCC3`?
Answer: Ki [1]: 26.3 nM; Ki [2]: 26.3 nM; Ki [3]: 43.3 nM; Ki [4]: 73.3 nM; Ratio Ki [5]: 2.8; Activity [6]: 36.5 µM/min; fold change (FC) [7]: 4.7; RatioGI50 [8]: <=306; T1/2 [9]: 1.14 h; RatioGI50 [10]: <=306; RatioGI50 [11]: <=306; RatioGI50 [12]: <=306; RatioGI50 [13]: <=306; RatioGI50 [14]: <=162; RatioGI50 [15]: <=162; RatioGI50 [16]: <=162; RatioGI50 [17]: <=162; RatioGI50 [18]: <=162; RatioGI50 [19]: <=162; Activity [20]: Active; Activity [21]: Active; Activity [22]: Active; Activity [23]: Active; Activity [24]: Active; Activity [25]: Active; Activity [26]: Active; Activity [27]: >50%; Activity [28]: Active; Activity [29]: Active; Activity [30]: >50%; Activity [31]: Active; GI50 [32]: 140 nM; GI50 [33]: 170 nM; GI50 [34]: 160 nM; GI50 [35]: 130 nM; GI50 [36]: 210 nM; GI50 [37]: 240 nM; GI50 at 48 h [38]: 240 nM
